Reference: ChEMBL document CHEMBL2073792, “Hepatic uptake of the magnetic resonance imaging contrast agent gadoxetate by the organic anion transporting polypeptide Oatp1” (J Pharmacol Exp Ther, 1999)

Key:
Format in all cases: functional, cell-based
Settings in all cases: oocyte
[1] = target: T1, Solute carrier organic anion transporter family member 1A1 (Rattus norvegicus, UniProt P46720); assay: TP_TRANSPORTER: inhibition of Gadoxetate uptake (Gadoxetate: 100 uM, Rifampicin: 100 uM) in Xenopus laevis oocytes
T1 sequence (P46720 whole entry): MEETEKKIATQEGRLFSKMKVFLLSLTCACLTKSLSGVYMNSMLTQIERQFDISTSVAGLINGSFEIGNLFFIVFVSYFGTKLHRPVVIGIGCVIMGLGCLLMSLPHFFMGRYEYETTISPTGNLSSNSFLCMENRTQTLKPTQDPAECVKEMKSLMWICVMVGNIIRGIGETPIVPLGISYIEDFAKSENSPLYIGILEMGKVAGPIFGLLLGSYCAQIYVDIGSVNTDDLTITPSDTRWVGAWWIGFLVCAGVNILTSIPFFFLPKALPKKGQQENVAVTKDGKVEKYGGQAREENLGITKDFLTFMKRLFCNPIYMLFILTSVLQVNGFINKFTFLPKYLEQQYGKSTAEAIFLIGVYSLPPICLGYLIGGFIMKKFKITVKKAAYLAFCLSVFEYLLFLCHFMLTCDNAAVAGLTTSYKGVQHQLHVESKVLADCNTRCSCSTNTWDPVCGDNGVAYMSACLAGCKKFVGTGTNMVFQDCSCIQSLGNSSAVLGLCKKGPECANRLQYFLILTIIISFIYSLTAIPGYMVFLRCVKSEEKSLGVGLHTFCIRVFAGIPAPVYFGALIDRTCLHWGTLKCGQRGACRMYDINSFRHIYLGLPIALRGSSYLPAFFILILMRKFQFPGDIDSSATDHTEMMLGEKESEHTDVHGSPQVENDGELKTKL

[2] = target: T1, Solute carrier organic anion transporter family member 1A1; assay: TP_TRANSPORTER: inhibition of Gadoxetate uptake (Gadoxetate: 100 uM, Rifamycin SV: 100 uM) in Xenopus laevis oocytes
[3] = target: T1, Solute carrier organic anion transporter family member 1A1; assay: TP_TRANSPORTER: inhibition of Gadoxetate uptake (Gadoxetate: 100 uM, BSP: 10 uM) in Xenopus laevis oocytes
[4] = target: T1, Solute carrier organic anion transporter family member 1A1; assay: TP_TRANSPORTER: uptake in Xenopus laevis oocytes

Q: How did the Activity [1] turn out when `CO[C@H]1/C=C/O[C@@]2(C)Oc3c(C)c(O)c4c(O)c(c(/C=N/N5CCN(C)CC5)c(O)c4c3C2=O)NC(=O)/C(C)=C\C=C\[C@H](C)[C@H](O)[C@@H](C)[C@@H](O)[C@@H](C)[C@H](OC(C)=O)[C@@H]1C` [RIFAMPIN] was run?
A: inhibitor [(at a rough estimate) 50 % of control]

Q: How did the Activity [2] turn out when `CO[C@H]1/C=C/O[C@@]2(C)Oc3c(C)c(O)c4c(O)c(cc(O)c4c3C2=O)NC(=O)/C(C)=C\C=C\[C@H](C)[C@H](O)[C@@H](C)[C@@H](O)[C@@H](C)[C@H](OC(C)=O)[C@@H]1C` [RIFAMYCIN] was run?
A: inhibitor [(at a rough estimate) <5 % of control]

Q: `O=C1OC(c2ccc(O)c(S(=O)(=O)[O-])c2)(c2ccc(O)c(S(=O)(=O)[O-])c2)c2c(Br)c(Br)c(Br)c(Br)c21.[Na+].[Na+]` [SULFOBROMOPHTHALEIN SODIUM] was tested. Which Activity [3] did it give?
A: inhibitor [(at a rough estimate) 55 % of control]

Q: How did the Km [4] turn out when GADOXETATE was run?
A: 3.3 mM
